Structures can show the parent of a compound that is named as a salt.
Columns and labels:
Assay type in all cases: in vivo
[1] = system: AVEFA (Avena fatua L., wild oat); assay: Example III postemergence foliar-applied mixtures, row crop weeds (corn, soybean), greenhouse: AVEFA
Description: (§1) Seeds or nutlets of the desired test plant species were planted in a soil matrix prepared by mixing a loam or sandy loam soil (e.g., 43 percent silt, 19 percent clay, and 38 percent sand, with a pH of about 8.1 and an organic matter content of about 1.5 percent) and calcareous grit in an 80 to 20 ratio. The soil matrix was contained in plastic pots with a surface area of 84.6 square centimters (cm^2) and a volume of 560 cubic centimeters (cm^3). […] The plants were grown for 7-31 days (d) in a greenhouse with an approximate 15 hour (h) photoperiod which was maintained at about 23-29° C. during the day and 22-28° C. during the night. Nutrients (Peters Excel® 15-5-15 5-Ca 2-Mg) and water were added on a regular basis and supplemental lighting was provided with overhead metal halide 1000-Watt lamps as necessary. The plants were employed for testing when they reached the first, second, or third true leaf stage.
Treatments consisted of the acid or esters of 4-amino-3-chloro-5-fluoro-6-(4-chloro-2-fluoro-3-methoxy-phenyl)pyridine-2-carboxylic acid (Compound A), each formulated as an
SC (suspension concentrate), and various herbicidal components alone and in combination. Forms of compound A were applied on an acid equivalent basis.
(§2) Other herbicidal components were applied on an acid equivalent or active ingredient basis and included the 5-enolpyruvylshikimate-3-phosphate synthase (EPSPS)-inhibiting herbicide, glyphosate dimethylamine salt, formulated as Durango DMA® and the glutamine synthase (GS)-inhibiting herbicide, glufosinate ammonium, formulated as Ignite® 280.
For treatments comprised of formulated compounds, measured amounts of compounds were placed individually in 25 mL glass vials and diluted in a volume of 1.5% (v/v) Agri-dex® crop oil concentrate to obtain 6× stock solutions. […] Application solutions were prepared by adding an appropriate amount of each stock solution (typically 2 mL) and diluted to the appropriate final concentrations with the addition of an aqueous mixture of 1.5% (v/v) crop oil concentrate and water so that the final spray solutions contained 1.25% (v/v) crop oil concentrate.
(§3) All stock solutions and applications solutions were visually inspected for compound compatibility prior to application. Compound requirements are based upon a 12 mL application volume at a rate of 187 liters per hectare (L/ha). Formulated compounds were applied to the plant material with an overhead Mandel track sprayer equipped with 8002E nozzles calibrated to deliver 187 L/ha over an application area of 0.503 square meters (m^2) at a spray height of 18 to 20 inches (46 to 50 cm) above the average plant canopy height. Control plants were sprayed in the same manner with the solvent blank.
(§4) The treated plants and control plants were placed in a greenhouse as described above and watered by sub-irrigation to prevent wash-off of the test compounds. After approximately 2 weeks, the condition of the test plants as compared with that of the untreated plants was determined visually and scored on a scale of 0 to 100 percent where 0 corresponds to no injury or growth inhibition and 100 corresponds to complete kill.
The following equation was used to calculate the expected activity of mixtures containing two active ingredients, A and B: […]

[2] = system: DIGSA (Digitaria sanguinalis (L.) Scop., large crabgrass); assay: Example IV postemergence foliar-applied mixtures, general weed control, greenhouse: DIGSA
Description: as §1, with “Sun Gro Metro-Mix® 360 planting mixture, which typically has” for “a soil matrix prepared by mixing a loam or sandy loam soil (e.g., 43 percent silt, 19 percent clay, and 38 percent sand, with”, “6.0 to 6.8” for “about 8.1”, “30 percent,” for “1.5 percent) and calcareous grit in an 80 to 20 ratio. The soil matrix was contained”, “square” for “square centimters (cm^2) and a volume of 560 cubic”, “(cm^2).” for “(cm^3).”
(§5) Treatments consisted of the acid or the benzyl ester of 4-amino-3-chloro-5-fluoro-6-(4-chloro-2-fluoro-3-methoxy-phenyl)pyridine-2-carboxylic acid (Compound A), each formulated as an SC, and various herbicidal components alone and in combination. Forms of compound A were applied on an acid equivalent basis.
as §2
(§6) For treatments comprised of formulated compounds, measured amounts of compounds were placed individually in 25 mL glass vials and diluted in a volume of 1.25% (v/v) Agri-dex crop oil concentrated to obtain 12× stock solutions. […] Application solutions were prepared by adding an appropriate amount of each stock solution (typically 1 mL) and diluted to the appropriate final concentrations with the addition of 10 mL of an aqueous mixture of 1.25% (v/v) Agri-dex crop oil concentrate so that the final spray solutions contained 1.25% (v/v) Agri-dex crop oil concentrate.
as §3
as §4, with “3” for “2”
(§7) Colby's equation was used to determine the herbicidal effects expected from the mixtures (Colby, S. R. 1967. Calculation of the synergistic and antagonistic response of herbicide combinations. Weeds 15:20-22.) .

[3] = system: CYPES (Cyperus esculentus L., yellow nutsedge); assay: Example IV postemergence foliar-applied mixtures, general weed control, greenhouse: CYPES
Description: as §1, with “Sun Gro Metro-Mix® 360 planting mixture, which typically has” for “a soil matrix prepared by mixing a loam or sandy loam soil (e.g., 43 percent silt, 19 percent clay, and 38 percent sand, with”, “6.0 to 6.8” for “about 8.1”, “30 percent,” for “1.5 percent) and calcareous grit in an 80 to 20 ratio. The soil matrix was contained”, “square” for “square centimters (cm^2) and a volume of 560 cubic”, “(cm^2).” for “(cm^3).”
as §5, §2, §6, §3
as §4, with “3” for “2”
as §7

[4] = system: CIRAR (Cirsium arvense (L.) Scop., Canada thistle); assay: Example IV postemergence foliar-applied mixtures, general weed control, greenhouse: CIRAR (Table 17, species inferred from b27)
Description: as §1, with “Sun Gro Metro-Mix® 360 planting mixture, which typically has” for “a soil matrix prepared by mixing a loam or sandy loam soil (e.g., 43 percent silt, 19 percent clay, and 38 percent sand, with”, “6.0 to 6.8” for “about 8.1”, “30 percent,” for “1.5 percent) and calcareous grit in an 80 to 20 ratio. The soil matrix was contained”, “square” for “square centimters (cm^2) and a volume of 560 cubic”, “(cm^2).” for “(cm^3).”
as §5, §2, §6, §3
as §4, with “3” for “2”
as §7

[5] = system: SETFA (Setaria faberi Herrm., giant foxtail); assay: Example IV postemergence foliar-applied mixtures, general weed control, greenhouse: SETFA
Description: as §1, with “Sun Gro Metro-Mix® 360 planting mixture, which typically has” for “a soil matrix prepared by mixing a loam or sandy loam soil (e.g., 43 percent silt, 19 percent clay, and 38 percent sand, with”, “6.0 to 6.8” for “about 8.1”, “30 percent,” for “1.5 percent) and calcareous grit in an 80 to 20 ratio. The soil matrix was contained”, “square” for “square centimters (cm^2) and a volume of 560 cubic”, “(cm^2).” for “(cm^3).”
as §5, §2, §6, §3
as §4, with “3” for “2”
as §7

[6] = system: CHEAL (Chenopodium album L., common lambsquarters); assay: Example IV postemergence foliar-applied mixtures, general weed control, greenhouse: CHEAL
Description: as §1, with “Sun Gro Metro-Mix® 360 planting mixture, which typically has” for “a soil matrix prepared by mixing a loam or sandy loam soil (e.g., 43 percent silt, 19 percent clay, and 38 percent sand, with”, “6.0 to 6.8” for “about 8.1”, “30 percent,” for “1.5 percent) and calcareous grit in an 80 to 20 ratio. The soil matrix was contained”, “square” for “square centimters (cm^2) and a volume of 560 cubic”, “(cm^2).” for “(cm^3).”
as §5, §2, §6, §3
as §4, with “3” for “2”
as §7

[7] = system: ECHCG (Echinochloa crusgalli (L.) Beauv., barnyardgrass); assay: Example IV postemergence foliar-applied mixtures, general weed control, greenhouse: ECHCG
Description: as §4, with “3” for “2”
as §7
The following equation was used to calculate the expected activity of mixtures containing two active ingredients, A and B:
A=observed efficacy of active ingredient A at the same concentration as used in the mixture.
B=observed efficacy of active ingredient B at the same concentration as used in the mixture.

[8] = Compound A Benzyl Ester 2 gae/ha alone, 18 DAA
[9] = Compound A Benzyl Ester 4 gae/ha alone, 18 DAA
[10] = Compound A Benzyl Ester 8 gae/ha alone, 18 DAA
[11] = Compound A Benzyl Ester 16 gae/ha alone, 18 DAA
[12] = Compound A Benzyl Ester 32 gae/ha alone, 18 DAA
[13] = Compound A Benzyl Ester alone, 2 gae/ha
[14] = Compound A Benzyl Ester alone, 4 gae/ha
[15] = Compound A Benzyl Ester alone, 8 gae/ha
[16] = Compound A Benzyl Ester alone, 16 gae/ha
[17] = Compound A Benzyl Ester alone, 32 gae/ha
[18] = Compound A Benzyl Ester 8 gae/ha alone
[19] = Glufosinate ammonium salt 225 gai/ha alone, 18 DAA
[20] = Glufosinate ammonium salt 112.5 gai/ha alone, 18 DAA
[21] = Glufosinate ammonium salt 450 gai/ha alone, 18 DAA
[22] = Glufosinate ammonium salt 225 gai/ha alone

Compound: COc1c(Cl)ccc(-c2nc(C(=O)O)c(Cl)c(N)c2F)c1F [Compound A Acid, 4-amino-3-chloro-6-(4-chloro-2-fluoro-3-methoxyphenyl)-5-fluoropyridine-2-carboxylic acid]
- Visual Weed Control (%) - 16 DAA AVEFA Obs ([1]; Compound A Acid alone, 3.75 gae/ha): 0%
- Visual Weed Control (%) - 16 DAA AVEFA Obs ([1]; Compound A Acid alone, 7.5 gae/ha): 0%
- Visual Weed Control (%) - 16 DAA AVEFA Obs ([1]; Compound A Acid alone, 15 gae/ha): 10%

Compound: COc1c(Cl)ccc(-c2nc(C(=O)OCc3ccccc3)c(Cl)c(N)c2F)c1F [Compound A Benzyl Ester]
- Visual Weed Control (%) - 18 DAA DIGSA Obs [2, 8]: 0%
- Visual Weed Control (%) - 18 DAA DIGSA Obs [2, 9]: 0%
- Visual Weed Control (%) - 18 DAA DIGSA Obs [2, 10]: 0%
- Visual Weed Control (%) - 18 DAA DIGSA Obs [2, 11]: 0%
- Visual Weed Control (%) - 18 DAA DIGSA Obs [2, 12]: 30%
- Visual Weed Control (%) - 18 DAA DIGSA Obs [2, 13]: 0%
- Visual Weed Control (%) - 18 DAA DIGSA Obs [2, 14]: 0%
- Visual Weed Control (%) - 18 DAA DIGSA Obs [2, 15]: 0%
- Visual Weed Control (%) - 18 DAA DIGSA Obs [2, 16]: 0%
- Visual Weed Control (%) - 18 DAA DIGSA Obs [2, 17]: 30%
- Visual Weed Control (%) - 18 DAA CYPES Obs [3, 8]: 40%
- Visual Weed Control (%) - 18 DAA CYPES Obs [3, 9]: 75%
- Visual Weed Control (%) - 18 DAA CYPES Obs [3, 10]: 80%
- Visual Weed Control (%) - 18 DAA CYPES Obs [3, 13]: 40%
- Visual Weed Control (%) - 18 DAA CIRAR Obs ([4]; Compound A Benzyl Ester 2 gae/ha alone): 60%
- Visual Weed Control (%) - 18 DAA CIRAR Obs ([4]; Compound A Benzyl Ester 4 gae/ha alone): 70%
- Visual Weed Control (%) - 18 DAA CIRAR Obs [4, 18]: 80%
- Visual Weed Control (%) - 18 DAA CIRAR Obs ([4]; Compound A Benzyl Ester 16 gae/ha alone): 85%
- Visual Weed Control (%) - 18 DAA CIRAR Obs ([4]; Compound A Benzyl Ester 32 gae/ha alone): 90%
- VisualWeed Control (%) - 18 DAA SETFA Obs [5, 8]: 40%
- VisualWeed Control (%) - 18 DAA SETFA Obs [5, 9]: 40%
- VisualWeed Control (%) - 18 DAA SETFA Obs [5, 10]: 75%
- VisualWeed Control (%) - 18 DAA SETFA Obs [5, 11]: 85%
- VisualWeed Control (%) - 18 DAA SETFA Obs [5, 12]: 90%
- VisualWeed Control (%) - 18 DAA SETFA Obs [5, 13]: 40%
- VisualWeed Control (%) - 18 DAA SETFA Obs [5, 14]: 40%
- Visual Weed Control (%) - 18 DAA CHEAL Obs [6, 8]: 50%
- Visual Weed Control (%) - 18 DAA CHEAL Obs [6, 9]: 70%
- Visual Weed Control (%) - 18 DAA CHEAL Obs [6, 10]: 90%
- Visual Weed Control (%) - 18 DAA CHEAL Obs [6, 13]: 50%
- Visual Weed Control (%) - 18 DAA CHEAL Obs [6, 14]: 70%
- Visual Weed Control (%) - 18 DAA CHEAL Obs [6, 15]: 90%
- Visual Weed Control (%) - 18 DAA CHEAL Obs [6, 16]: 95%
- Visual Weed Control (%) - 18 DAA CHEAL Obs [6, 17]: 99%
- Visual Weed Control (%) - 18 DAA ECHCG Obs [7, 18]: 40%

Compound: CP(=O)(O)CCC(N)C(=O)O (stereo not shown) [Glufosinate ammonium salt, 2-amino-4-(hydroxymethylphosphinyl)butanoic acid monoammonium salt, reference compound]
- Visual Weed Control (%) - 18 DAA DIGSA Obs [2, 19]: 25%
- Visual Weed Control (%) - 18 DAA CYPES Obs [3, 20]: 0%
- Visual Weed Control (%) - 18 DAA CYPES Obs [3, 19]: 0%
- Visual Weed Control (%) - 18 DAA CYPES Obs [3, 21]: 0%
- Visual Weed Control (%) - 18 DAA CIRAR Obs [4, 22]: 15%
- VisualWeed Control (%) - 18 DAA SETFA Obs [5, 21]: 60%
- Visual Weed Control (%) - 18 DAA CHEAL Obs [6, 20]: 0%
- Visual Weed Control (%) - 18 DAA CHEAL Obs [6, 19]: 10%
- Visual Weed Control (%) - 18 DAA CHEAL Obs [6, 21]: 30%
- Visual Weed Control (%) - 18 DAA ECHCG Obs ([7]; Glufosinate ammonium salt 112.5 gai/ha alone): 0%
- Visual Weed Control (%) - 18 DAA ECHCG Obs [7, 22]: 0%
- Visual Weed Control (%) - 18 DAA ECHCG Obs ([7]; Glufosinate ammonium salt 450 gai/ha alone): 10%
- Visual Weed Control (%) - 16 DAA AVEFA Obs ([1]; glufosinate ammonium alone, 28.25 gae/ha): 0%
- Visual Weed Control (%) - 16 DAA AVEFA Obs ([1]; glufosinate ammonium alone, 56.5 gae/ha): 0%
